From patent publication US10591497B2, “Immunoassay for synthetic cannabinoids of the adamantyl indazole/indole-3-carboxamide family” (Randox Laboratories Limited, priority 2014, dated 2020)
In brackets after ≈: the same amount, converted by molar mass.

Tested on: antibody derived from Immunogen of Example 9
Experiment: Competitive immunoassay (ELISA), IC50 derivation and cross-reactivity
Format: binding, sheep
Settings: for % CROSS-REACTIVITY: compared to 100% for AKB48; for % CROSS-REACTIVITY / IC50: Tracer 1 of Example 10; for binding to the antibodies of the invention: "does not bind" = cross-reactivity of less than 2% vs 100% for AKB48 under Example 12 conditions; for IC50: Table 2, generated as per AKB48 and Table 1
Procedure: All cross-reactivity are measured herein under the experimental conditions of Example 12 and compared to 100% for AKB48.
IgG is extracted from the antisera and immobilised on a 96 well ELISA plate (coated for 2 hours at +37° C. at 10 ug/ml in a Phosphate Buffered Saline pH7.2). Unbound material is removed by washing with Tris Buffered Saline (TBS) containing tween ([…]) over 10 minutes. Standard AKB48 is added at the concentrations quoted in Table 1, followed by detection agent 1 (FIG. 2) at 1/140 k in a dilution buffer. After incubation (60 mins) at +15 to +25° C. to allow a competition reaction to take place, the microtitre plate is washed with TBS containing Tween™ to remove excess reagents. The enzyme substrate […] (125 μl) is added (Kem-en-Tec Cat. No. 4800). After a 20 minute incubation period to allow maximum colour development, the colour reaction is stopped by the addition of sulphuric acid (0.2M, 120 μl). This produces a colour change from blue to yellow, and the absorbances are read at 450 nm. A standard curve is then constructed and the IC50 calculated as the AKB48 concentration which produces 50% inhibition of maximal signal. This process was repeated for synthetic cannabinoid members as stated in Table 2 to assess cross-reactivity.
The cross-reactivity (CR) was calculated using the equation below. All calculations were based upon binding and displacement at the 50% of maximum OD (optical density) binding point. The maximum OD is the signal generated using tracer alone and 50% displacement (inhibition) corresponds to the IC50. […]
The extent of antibody binding to synthetic cannabinoids of various families was assessed (Table 2). For the cross-reactants with IC50 values, standard curves were derived for each analyte (as per AKB48 and Table 1). […] In all cases, the cross-reactivity set out in Table 2 was measured using an antibody derived from the immunogen of Example 9 and Tracer 1 of Example 10.

[1] = single cross-reactant at 300 ng/ml
[2] = standard curve derived for each analyte

Row | SMILES | % CROSS-REACTIVITY [1] | binding to the antibodies of the invention | also measured
1 | CCCCCCn1cc(C(=O)c2cccc3ccccc23)c2ccccc21 [JWH-019] | <1.00% |  | 
2 | CCCCn1cc(C(=O)c2cccc3ccccc23)c2ccccc21 [JWH-073] | <1.00% | do not bind | 
3 | O=C(O)CCCCn1cc(C(=O)NC23CC4CC(CC(C4)C2)C3)c2ccccc21 [SDB-001 N-Pentanoic acid (LK1404)] | <1.00% | do not bind | 
4 | CCCCCn1cc(C(=O)O)c2ccccc21 [PB-22 3-Carboxyindole metabolite] | <1.00% |  | 
5 | CN1CCCCC1Cn1cc(C(=O)C23CC4CC(CC(C4)C2)C3)c2ccccc21 (centres unmarked) [AM-1248] | <1.00% | does not bind | 
6 | CC1(C)C(C(=O)c2cn(CCCCC(=O)O)c3ccccc23)C1(C)C [UR-144 N Pentanoic acid] | <1.00% |  | 
7 | O=C(c1ccccc1I)c1cn(CCCCCF)c2ccccc12 [AM-694] | <1.00% | does not bind | 
8 | CC1(C)C(C(=O)c2cn(CCN3CCOCC3)c3ccccc23)C1(C)C [A-7969260] | <1.00% |  | 
9 | O=C(c1cccc2ccccc12)c1cn(CCCC(O)CF)c2ccccc12 (centres unmarked) [AM-2201 N-(4-Hydroxypentyl)] | <1.00% |  | 
10 | O=C(Oc1cccc2cccnc12)c1cn(CCCCCF)c2ccccc12 [5-fluoro PB-22] | <1.00% |  | 
11 | O=C(O)c1cn(CCCCCF)c2ccccc12 [3-carboxyindole of 5-fluoro PB-22] | <1.00% |  | 
12 | CC1(C)C(C(=O)c2cn(CCCCCF)c3ccccc23)C1(C)C [XLR-11] | <1.00% | do not bind | 
13 | O=C(NC12CC3CC(CC(C3)C1)C2)c1cn(CCCCCF)c2ccccc12 [STS135] |  |  | IC50: 0.02476 mg/L (≈ 0.0647 µM); % CROSS-REACTIVITY [2]: 8.41%
14 | O=C(c1cccc2ccccc12)c1cn(CCCCCF)c2cc(O)ccc12 [AM-2201 6-Hydroxyindole] | <1.00% |  | 
15 | CCCCCn1cc(C(=O)c2cccc3ccccc23)c2c(O)cccc21 [JWH-018 4-Hydroxyindole] | <1.00% |  | 
16 | CCCCn1cc(C(=O)c2cccc3ccccc23)c2cc(O)ccc21 [JWH-073 5-Hydroxyindole] | <1.00% |  | 
17 | CCCCCn1cc(C(=O)c2ccc(CC)c3ccccc23)c2ccccc21 [JWH-210] | <1.00% |  | 
18 | N#CCCCCn1cc(C(=O)c2cccc3ccccc23)c2ccccc21 [AM2232] | <1.00% |  | 
19 | O=C(c1cccc2ccccc12)c1cn(CCCCCO)c2ccccc12 [JWH-018 N-(5-Hydroxypentyl)] | <1.00% |  | 
20 | CCCCCn1cc(C(=O)c2ccc(OC)c3ccccc23)c2ccccc21 [JWH-081] | <1.00% |  | 
21 | CCCCCn1cc(C(=O)c2ccc(OC)cc2)c2ccccc21 [RCS-4] |  | does not bind | IC50: 0.12455 mg/L (≈ 0.387 µM); % CROSS-REACTIVITY [2]: 1.67%

Row | SMILES | % CROSS-REACTIVITY [1] | binding to the antibodies of the invention | also measured
22 | CCCCCn1cc(C(=O)NC23CC4CC(CC(C4)C2)C3)c2ccccc21 [SDB001] |  |  | IC50: 0.052 mg/L (≈ 0.143 µM); % CROSS-REACTIVITY [2]: 4.07%
23 | O=C(Oc1cccc2cccnc12)c1cn(CC2CCCCC2)c2ccccc12 [BB-22] | <1.00% |  | 
24 | CCCCCn1cc(C(=O)NC23CC4CC(CC(O)(C4)C2)C3)c2ccccc21 [3-OH-SDB001] |  |  | IC50: 0.0044 mg/L (≈ 0.0116 µM); % CROSS-REACTIVITY [2]: 47.30%
25 | CCCCCn1c(C)c(C(=O)c2cccc3ccccc23)c2ccccc21 [JWH-007] | <1.00% |  | 
26 | COc1ccccc1CC(=O)c1cn(CCCCCO)c2ccccc12 [JWH-250 N-(5-Hydroxypentyl)] | <1.00% | do not bind | 
27 | O=C(O)CCCCn1cc(C(=O)C23CC4CC(CC(C4)C2)C3)c2ccccc21 [AB001 N-Pentanoic Acid] | <1.00% | do not bind | 
28 | CCCCCn1nc(C(=O)N[C@H](C(N)=O)C(C)C)c2ccccc21 [AB Pinaca] | <1.00% | does not bind | 
29 | CCCCCn1cc(C(=O)C2C(C)(C)C2(C)C)c2ccccc21 [UR-144] | <1.00% | do not bind | 
30 | CCCCCn1cc(C(=O)NC23CC4CC(CC(C4)C2)C3)c2ccccc21 [AKB48, N-(1-adamantyl)-1-pentyl-1H-indole-3-carboxamide] |  |  | % B/B0 (AKB48 concentration 0.25 ng/ml): 88%; % B/B0 (AKB48 concentration 0.74 ng/ml): 69%; % B/B0 (AKB48 concentration 2.22 ng/ml): 50%; % B/B0 (AKB48 concentration 6.67 ng/ml): 26%; % B/B0 (AKB48 concentration 20.00 ng/ml): 12%; IC50: 0.00208 mg/L (≈ 0.00571 µM); % CROSS-REACTIVITY [2]: 100.00%
31 | COc1ccccc1CC(=O)c1cn(CCC2CCCCC2)c2ccccc12 [RCS-8] | <1.00% | does not bind | 
32 | CCCCCn1cc(C(=O)c2cccc3ccccc23)c2ccccc21 [JWH-018] | <1.00% | do not bind | 
33 | C=CCCCn1cc(C(=O)c2cccc3ccccc23)c2ccccc21 [JWH-022] | <1.00% |  | 
34 | CCCCCn1cc(C(=O)Oc2cccc3cccnc23)c2ccccc21 [PB-22] | <1.00% | does not bind | 
35 | O=C(NC12CC3CC(CC(C3)C1)C2)c1nn(CCCCCF)c2ccccc12 [AKB48 N-(5-fluoropentyl)] |  |  | IC50: 0.0021 mg/L (≈ 0.00548 µM); % CROSS-REACTIVITY [2]: 98.90%
36 | CCCn1c(C)c(C(=O)c2cccc3ccccc23)c2ccccc21 [JWH-015] | <1.00% |  | 
37 | COc1ccccc1CC(=O)c1cn(CCCCCC(=O)O)c2ccccc12 [JWH-250 N-(5-Carboxypentyl)] | <1.00% | do not bind | 
38 | CCCCCn1cc(C(=O)c2ccc(Cl)c3ccccc23)c2ccccc21 [JWH-398] | <1.00% |  | 
39 | O=C(O)CCCCn1nc(C(=O)NC23CC4CC(CC(C4)C2)C3)c2ccccc21 [AKB48 N-Pentanoic acid (LK1461)] | <1.00% | do not bind | 
40 | CCCCn1cc(C(=O)c2cccc3ccccc23)c2c(O)cccc21 [JWH-073 4-Hydroxyindole] | <1.00% |  | 
41 | O=C(O)CCCCn1cc(C(=O)c2cccc3ccccc23)c2ccccc21 [JWH-018 N-Pentanoic acid] | <1.00% |  | 
42 | O=C(c1c[nH]c2ccccc12)C12CC3CC(CC(C3)C1)C2 [N-Desalkyl AB001] | <1.00% |  | 
